Each structure is given as a SMILES string.

This note sets out measurements from patent US20260207615A1, “FLUOROPYRIDOPYRIMIDINE AND FLUOROQUINAZOLINE DERIVATIES AND METHODS OF USE THEREOF” (Frontier Medicines Corporation, priority 2022, published 2026).

T1 sequence (P01116 1-169 isoform P01116-2 G12C/C51S/C80L/C118S): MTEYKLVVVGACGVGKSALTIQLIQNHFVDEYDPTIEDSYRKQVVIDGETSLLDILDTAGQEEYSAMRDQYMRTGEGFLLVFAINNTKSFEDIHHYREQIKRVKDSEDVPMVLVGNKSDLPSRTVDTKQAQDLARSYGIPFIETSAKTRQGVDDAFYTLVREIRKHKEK

This assay has as its target T1, KRAS G12C and cRAF interaction (Homo sapiens, UniProt P01116, C118S/C51S/C80L/G12C).
T1 construct: truncated version comprising amino acids 1-169
Nature of the assay: Inhibition of KRAS G12C and cRAF binding (AlphaScreen). Format: biochemical. Conditions: KRAS G12C (Cys-light, aa 1-169) preloaded with GMPPNP, cRaf RBD (aa 50-131), 2 hours incubation. The gist of the method: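 Biotin-AviTag KRAS G12C (Cys-light C51S/C80L/C118S, aa 1-169, GMPPNP-loaded; 0.5 nM final)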
Background: Alpha assays give light when donor and acceptor beads are brought close together.
In general, IC50 refers to the concentration that inhibits the measured activity by half. Molecule `C=CC(=O)N1CCN(c2nc(OC[C@@]34CCCN3C[C@H](F)C4)nc3c(F)c(-c4cc(O)cc(Cl)c4C4CC4)c(Cl)cc23)CC12COC2` [Example 78, 1-(8-(6-chloro-7-(3-chloro-2-cyclopropyl-5-hydroxyphenyl)-8-fluoro-2-(((2R,7aS)-2-fluorotetrahydro-1H-pyrrolizin-7a(5H)-yl)methoxy)quinazolin-4-yl)-2-oxa-5,8-diazaspiro[3.5]nonan-5-yl) prop-2-en-1-one] came in with an IC50 of less than 10 nM.

In the case of `C=C(F)C(=O)N1CCN(c2nc(OC[C@@]34CCCN3C[C@H](F)C4)nc3c(F)c(-c4cc(O)cc(Cl)c4C4CC4)ncc23)CC12COC2` [Example 79], the IC50 was no less than 500 nM.

`C=CC(=O)N1CCN(c2nc(OC[C@@]34CCCN3C[C@H](F)C4)nc3c(F)c(-c4cccc5ccc(F)c(F)c45)ncc23)C[C@@]12CCOC2` [Example 80] showed an IC50 of 10 to 100 nM.

As for `C=CC(=O)N1CCN(c2nc(OC[C@@]34CCCN3C[C@H](F)C4)nc3c(F)c(-c4cccc5ccc(F)c(F)c45)ncc23)C[C@]12CCOC2` [Example 81], the IC50 was no less than 500 nM.

Molecule `C=CC(=O)N1CCN(c2nc(OC[C@@]34CCCN3C[C@H](F)C4)nc3c(F)c(-c4cccc5ccc(F)c(F)c45)ncc23)CC12CCOC2` (some centres unmarked) [Example 82] registered an IC50 of 10 to 100 nM.

In turn, `C=CC(=O)N1CCN(c2nc(OC[C@@H]3CCCN3C)nc3c(F)c(-c4cccc5cccc(Cl)c45)ncc23)CC12CCOC2` (some centres unmarked) [Example 83] displayed an IC50 of no less than 500 nM.

With `C=CC(=O)N1CCN(c2nc(OC[C@@]34CCCN3C[C@H](F)C4)nc3c(F)c(-c4cccc5cccc(Cl)c45)ncc23)CC12CCOC2` (some centres unmarked) [Example 84], the IC50 lay within 100 to 500 nM.

`C=CC(=O)N1CCN(c2nc(OC[C@@]34CCCN3C[C@H](F)C4)nc3c(F)c(-c4cc(O)cc(Cl)c4C4CC4)ncc23)CC12CCOC2` (stereo partly drawn) [Example 85, 1-(9-(7-(3-chloro-2-cyclopropyl-5-hydroxyphenyl)-8-fluoro-2-(((2R,7aS)-2-fluorotetrahydro-1H-pyrrolizin-7a(5H)-yl)methoxy)pyrido[4,3-d]pyrimidin-4-yl)-2-oxa-6,9-diazaspiro[4.5]decan-6-yl) prop-2-en-1-one]: the IC50 was less than 10 nM.

Turning to `C=CC(=O)N1CCN(c2nc(OC[C@@]34CCCN3C[C@H](F)C4)nc3c(F)c(-c4ccc(F)c5sc(N)nc45)c(Cl)cc23)CC12CCOC2` (some centres unmarked) [Example 86], the IC50 lay within 100 to 500 nM.

With `C=CC(=O)N1CCN(c2nc(OC[C@@]34CCCN3C[C@H](F)C4)nc3c(F)c(-c4ccc(F)c5sc(N)nc45)c(Cl)cc23)C[C@]12CCOC2` [Example 87], the IC50 was no less than 500 nM.

As for `C=CC(=O)N1CCN(c2nc(OC[C@@]34CCCN3C[C@H](F)C4)nc3c(F)c(-c4cccc5cccc(Cl)c45)ncc23)C[C@@]12CCOC2` [Example 88], the IC50 lay in the range of 100 to 500 nM.

With `C=CC(=O)N1CCN(c2nc(OC[C@@]34CCCN3C[C@H](F)C4)nc3c(F)c(-c4cccc5cccc(Cl)c45)ncc23)C[C@]12CCOC2` [Example 89], the IC50 is no less than 500 nM.

In turn, `C=CC(=O)N1CCN(c2nc(OC[C@@]34CCCN3C[C@H](F)C4)nc3c(F)c(-c4ccc(F)c5sc(N)nc45)c(C(F)(F)F)cc23)CC12CCOC2` (some centres unmarked) [Example 90] registered an IC50 of 10 to 100 nM.

Turning to `C=CC(=O)N1CCN(c2nc(OC[C@@]34CCCN3C[C@H](F)C4)nc3c(F)c(-c4ccc(F)c5sc(N)nc45)c(Cl)cc23)C[C@@]12CCOC2` [Example 91], the IC50 was in the range of 100 to 500 nM.

The molecule `C=CC(=O)N1CCN(c2nc(OC[C@@]34CCCN3C[C@H](F)C4)nc3c(F)c(-c4ccc(F)c5sc(N)nc45)c(C(F)(F)F)cc23)C[C@]12CCOC2` [Example 92] had an IC50 of 10 to 100 nM.

`C=CC(=O)N1CCN(c2nc(OC[C@@]34CCCN3C[C@H](F)C4)nc3c(F)c(-c4ccc(F)c5sc(N)nc45)c(C(F)(F)F)cc23)C[C@@]12CCOC2` [Example 93]: the IC50 is no less than 500 nM.

Molecule `Cc1nccc(/C=C/C(=O)N2CCN(c3nc(OC[C@@]45CCCN4C[C@H](F)C5)nc4c(F)c(-c5ccccc5C(F)F)ncc34)CC23COC3)n1` [Example 94] had an IC50 of no less than 500 nM.
